# Numbers after ± are expanded uncertainties.
# Columns and labels:
# [1] = Molar enthalpy of transition or fusion; settings: Crystal; Adiabatic calorimetry
# [2] = for molar entropy: 101.33 kPa, Vacuum adiabatic calorimetry
smiles,measurement,setting,value
"CC(C)(C)Cc1ccccc1 [(2,2-dimethylpropyl)benzene]",Molar enthalpy of transition or fusion,[1],3.676 ± 0.0239 kcal/mol
same,molar entropy,"[2]; 5 K, Crystal",0.1197 ± 0.017 J/K/mol
same,molar entropy,"[2]; 10 K, Crystal",0.956 ± 0.027 J/K/mol
same,molar entropy,"[2]; 15 K, Crystal",3.026 ± 0.047 J/K/mol
same,molar entropy,"[2]; 20 K, Crystal",6.298 ± 0.07 J/K/mol
same,molar entropy,"[2]; 25 K, Crystal",10.58 ± 0.09 J/K/mol
same,molar entropy,"[2]; 30 K, Crystal",15.48 ± 0.11 J/K/mol
same,molar entropy,"[2]; 35 K, Crystal",20.64 ± 0.12 J/K/mol
same,molar entropy,"[2]; 40 K, Crystal",25.96 ± 0.14 J/K/mol
same,molar entropy,"[2]; 45 K, Crystal",31.32 ± 0.16 J/K/mol
same,molar entropy,"[2]; 50 K, Crystal",36.64 ± 0.17 J/K/mol
same,molar entropy,"[2]; 60 K, Crystal",46.98 ± 0.2 J/K/mol
same,molar entropy,"[2]; 70 K, Crystal",57.07 ± 0.23 J/K/mol
same,molar entropy,"[2]; 80 K, Crystal",66.82 ± 0.26 J/K/mol
same,molar entropy,"[2]; 90 K, Crystal",76.28 ± 0.41 J/K/mol
same,molar entropy,"[2]; 100 K, Crystal",85.56 ± 0.43 J/K/mol
same,molar entropy,"[2]; 110 K, Crystal",94.62 ± 0.44 J/K/mol
same,molar entropy,"[2]; 120 K, Crystal",103.5 ± 0.5 J/K/mol
same,molar entropy,"[2]; 130 K, Crystal",112.2 ± 0.5 J/K/mol
same,molar entropy,"[2]; 140 K, Crystal",120.9 ± 0.5 J/K/mol
same,molar entropy,"[2]; 150 K, Crystal",129.4 ± 0.5 J/K/mol
same,molar entropy,"[2]; 160 K, Crystal",137.8 ± 0.5 J/K/mol
same,molar entropy,"[2]; 170 K, Crystal",146.1 ± 0.5 J/K/mol
same,molar entropy,"[2]; 180 K, Crystal",154.2 ± 0.5 J/K/mol
same,molar entropy,"[2]; 190 K, Crystal",162.5 ± 0.5 J/K/mol
same,molar entropy,"[2]; 200 K, Crystal",170.5 ± 0.6 J/K/mol
same,molar entropy,"[2]; 210 K, Crystal",178.6 ± 0.6 J/K/mol
same,molar entropy,"[2]; 220 K, Crystal",186.7 ± 0.6 J/K/mol
same,molar entropy,"[2]; 230 K, Crystal",194.6 ± 0.6 J/K/mol
same,molar entropy,"[2]; 240 K, Crystal",202.5 ± 0.6 J/K/mol
same,molar entropy,"[2]; 250 K, Crystal",210.4 ± 0.6 J/K/mol
same,molar entropy,"[2]; 255.43 K, Crystal",214.7 ± 0.6 J/K/mol
same,molar entropy,"[2]; 255.43 K, Liquid",274.9 ± 0.7 J/K/mol
same,molar entropy,"[2]; 260 K, Liquid",279.4 ± 0.7 J/K/mol
same,molar entropy,"[2]; 270 K, Liquid",288.9 ± 0.7 J/K/mol
same,molar entropy,"[2]; 280 K, Liquid",298.4 ± 0.7 J/K/mol
same,molar entropy,"[2]; 290 K, Liquid",307.7 ± 0.8 J/K/mol
same,molar entropy,"[2]; 298.15 K, Liquid",315.2 ± 0.8 J/K/mol
same,molar entropy,"[2]; 300 K, Liquid",316.9 ± 0.8 J/K/mol
same,molar entropy,"[2]; 310 K, Liquid",325.8 ± 0.8 J/K/mol
same,molar entropy,"[2]; 320 K, Liquid",334.7 ± 0.8 J/K/mol
same,molar entropy,"[2]; 330 K, Liquid",343.4 ± 0.8 J/K/mol
same,molar entropy,"[2]; 340 K, Liquid",351.9 ± 0.8 J/K/mol
same,molar entropy,"[2]; 350 K, Liquid",360.4 ± 0.8 J/K/mol
same,Triple point temperature,"[2]; Crystal, Adiabatic calorimetry",255.43 ± 0.05 K

# — the NIST ThermoML archive (doi:10.1016/j.jct.2011.12.010)
